Data published in ChEMBL document CHEMBL1671705, “Investigations into the role of the Plasmodium falciparum SERCA (PfATP6) L263E mutation in artemisinin action and resistance” (Antimicrob Agents Chemother, 2010).

Test system: Plasmodium falciparum
Assay: Antimalarial activity against Plasmodium falciparum 7G8 harboring pfATP6 L263 mutant assessed as inhibition of [3H]hypoxanthine incorporation
Assay type: functional, organism-based

How did the IC50 turn out when C[C@H]1[C@@H](O)O[C@@H]2O[C@@]3(C)CC[C@H]4[C@H](C)CC[C@@H]1[C@@]24OO3 [ARTENIMOL] was run?
The IC50 was 2.26 nM.

How did the IC50 turn out when C[C@H]1[C@H](OC(=O)CCC(=O)O)O[C@@H]2O[C@@]3(C)CC[C@H]4[C@H](C)CC[C@@H]1[C@@]24OO3 [ARTESUNATE] was run?
Its IC50 is 13.5 nM.

Test system: Plasmodium falciparum
Assay: Antimalarial activity against Plasmodium falciparum 7G8 harboring pfATP6 263E mutant assessed as inhibition of [3H]hypoxanthine incorporation
Assay type: functional, organism-based

How did the IC50 turn out when C[C@H]1[C@@H](O)O[C@@H]2O[C@@]3(C)CC[C@H]4[C@H](C)CC[C@@H]1[C@@]24OO3 [ARTENIMOL] was run?
Its IC50 is 1.3 nM.

How did the IC50 turn out when C[C@H]1[C@H](OC(=O)CCC(=O)O)O[C@@H]2O[C@@]3(C)CC[C@H]4[C@H](C)CC[C@@H]1[C@@]24OO3 [ARTESUNATE] was run?
Its IC50 is 14.9 nM.

Test system: Plasmodium falciparum
Assay: Antimalarial activity against Plasmodium falciparum D10 harboring pfATP6 263E mutant assessed as inhibition of [3H]hypoxanthine incorporation
Assay type: functional, organism-based

How did the IC50 turn out when C[C@H]1[C@@H](O)O[C@@H]2O[C@@]3(C)CC[C@H]4[C@H](C)CC[C@@H]1[C@@]24OO3 [ARTENIMOL] was run?
The IC50 was 3.96 nM.

C[C@H]1[C@H](OC(=O)CCC(=O)O)O[C@@H]2O[C@@]3(C)CC[C@H]4[C@H](C)CC[C@@H]1[C@@]24OO3 [ARTESUNATE] was tested. Which IC50 did it give?
The IC50 was 26.2 nM.

Test system: Plasmodium falciparum
Assay: Antimalarial activity against Plasmodium falciparum 7G8 clone M1 harboring pfATP6 L263 mutant assessed as inhibition of [3H]hypoxanthine incorporation
Assay type: functional, organism-based

For C[C@H]1[C@@H](O)O[C@@H]2O[C@@]3(C)CC[C@H]4[C@H](C)CC[C@@H]1[C@@]24OO3 [ARTENIMOL], which IC50 is on record?
Its IC50 is 2.37 nM.

For C[C@H]1[C@H](OC(=O)CCC(=O)O)O[C@@H]2O[C@@]3(C)CC[C@H]4[C@H](C)CC[C@@H]1[C@@]24OO3 [ARTESUNATE], which IC50 is on record?
The IC50 was 14.9 nM.

Test system: Plasmodium falciparum
Assay: Antimalarial activity against Plasmodium falciparum D10 clone 2 assessed as inhibition of [3H]hypoxanthine incorporation
Assay type: functional, organism-based

Which IC50 does the source give for C[C@H]1[C@@H](O)O[C@@H]2O[C@@]3(C)CC[C@H]4[C@H](C)CC[C@@H]1[C@@]24OO3 [ARTENIMOL] here?
The IC50 was 3.38 nM.

C[C@H]1[C@H](OC(=O)CCC(=O)O)O[C@@H]2O[C@@]3(C)CC[C@H]4[C@H](C)CC[C@@H]1[C@@]24OO3 [ARTESUNATE] was tested. Which IC50 did it give?
Its IC50 is 16.8 nM.

Test system: Plasmodium falciparum
Assay: Antimalarial activity against Plasmodium falciparum D10 clone 1 assessed as inhibition of [3H]hypoxanthine incorporation
Assay type: functional, organism-based

Which IC50 does the source give for C[C@H]1[C@@H](O)O[C@@H]2O[C@@]3(C)CC[C@H]4[C@H](C)CC[C@@H]1[C@@]24OO3 [ARTENIMOL] here?
Its IC50 is 3.42 nM.

Which IC50 does the source give for C[C@H]1[C@H](OC(=O)CCC(=O)O)O[C@@H]2O[C@@]3(C)CC[C@H]4[C@H](C)CC[C@@H]1[C@@]24OO3 [ARTESUNATE] here?
The IC50 was 26.6 nM.

Test system: Plasmodium falciparum
Assay: Antimalarial activity against Plasmodium falciparum 7G8 clone 1 assessed as inhibition of [3H]hypoxanthine incorporation
Assay type: functional, organism-based

How did the IC50 turn out when C[C@H]1[C@@H](O)O[C@@H]2O[C@@]3(C)CC[C@H]4[C@H](C)CC[C@@H]1[C@@]24OO3 [ARTENIMOL] was run?
The IC50 was 2.01 nM.

C[C@H]1[C@H](OC(=O)CCC(=O)O)O[C@@H]2O[C@@]3(C)CC[C@H]4[C@H](C)CC[C@@H]1[C@@]24OO3 [ARTESUNATE] was tested. Which IC50 did it give?
Its IC50 is 14.2 nM.

Test system: Plasmodium falciparum
Assay: Antimalarial activity against Plasmodium falciparum D10 clone 1 harboring pfATP6 L263 mutant assessed as inhibition of [3H]hypoxanthine incorporation
Assay type: functional, organism-based

C[C@H]1[C@@H](O)O[C@@H]2O[C@@]3(C)CC[C@H]4[C@H](C)CC[C@@H]1[C@@]24OO3 [ARTENIMOL] was tested. Which IC50 did it give?
Its IC50 is 3.41 nM.

With C[C@H]1[C@H](OC(=O)CCC(=O)O)O[C@@H]2O[C@@]3(C)CC[C@H]4[C@H](C)CC[C@@H]1[C@@]24OO3 [ARTESUNATE] as the compound, how does the IC50 read?
Its IC50 is 23.6 nM.

Test system: Plasmodium falciparum
Assay: Antimalarial activity against Plasmodium falciparum 7G8 clone 1 harboring pfATP6 L263 mutant assessed as inhibition of [3H]hypoxanthine incorporation
Assay type: functional, organism-based

Which IC50 does the source give for C[C@H]1[C@@H](O)O[C@@H]2O[C@@]3(C)CC[C@H]4[C@H](C)CC[C@@H]1[C@@]24OO3 [ARTENIMOL] here?
Its IC50 is 2.26 nM.

How did the IC50 turn out when C[C@H]1[C@H](OC(=O)CCC(=O)O)O[C@@H]2O[C@@]3(C)CC[C@H]4[C@H](C)CC[C@@H]1[C@@]24OO3 [ARTESUNATE] was run?
The IC50 was 13.5 nM.

Test system: Plasmodium falciparum
Assay: Antimalarial activity against Plasmodium falciparum 7G8 clone 2 assessed as inhibition of [3H]hypoxanthine incorporation
Assay type: functional, organism-based

How did the IC50 turn out when C[C@H]1[C@@H](O)O[C@@H]2O[C@@]3(C)CC[C@H]4[C@H](C)CC[C@@H]1[C@@]24OO3 [ARTENIMOL] was run?
Its IC50 is 2.76 nM.

Which IC50 does the source give for C[C@H]1[C@H](OC(=O)CCC(=O)O)O[C@@H]2O[C@@]3(C)CC[C@H]4[C@H](C)CC[C@@H]1[C@@]24OO3 [ARTESUNATE] here?
The IC50 was 12.1 nM.

Test system: Plasmodium falciparum
Assay: Antimalarial activity against Plasmodium falciparum 7G8 clone M2 assessed as inhibition of [3H]hypoxanthine incorporation
Assay type: functional, organism-based

Which IC50 does the source give for C[C@H]1[C@@H](O)O[C@@H]2O[C@@]3(C)CC[C@H]4[C@H](C)CC[C@@H]1[C@@]24OO3 [ARTENIMOL] here?
Its IC50 is 2.19 nM.

C[C@H]1[C@H](OC(=O)CCC(=O)O)O[C@@H]2O[C@@]3(C)CC[C@H]4[C@H](C)CC[C@@H]1[C@@]24OO3 [ARTESUNATE] was tested. Which IC50 did it give?
Its IC50 is 13.3 nM.

Test system: Plasmodium falciparum
Assay: Antimalarial activity against Plasmodium falciparum 7G8 clone M4 assessed as inhibition of [3H]hypoxanthine incorporation
Assay type: functional, organism-based

How did the IC50 turn out when C[C@H]1[C@@H](O)O[C@@H]2O[C@@]3(C)CC[C@H]4[C@H](C)CC[C@@H]1[C@@]24OO3 [ARTENIMOL] was run?
The IC50 was 2.25 nM.

C[C@H]1[C@H](OC(=O)CCC(=O)O)O[C@@H]2O[C@@]3(C)CC[C@H]4[C@H](C)CC[C@@H]1[C@@]24OO3 [ARTESUNATE] was tested. Which IC50 did it give?
The IC50 was 21.3 nM.

Test system: Plasmodium falciparum
Assay: Antimalarial activity against Plasmodium falciparum 7G8 clone M3 assessed as inhibition of [3H]hypoxanthine incorporation
Assay type: functional, organism-based

How did the IC50 turn out when C[C@H]1[C@@H](O)O[C@@H]2O[C@@]3(C)CC[C@H]4[C@H](C)CC[C@@H]1[C@@]24OO3 [ARTENIMOL] was run?
The IC50 was 2.41 nM.

C[C@H]1[C@H](OC(=O)CCC(=O)O)O[C@@H]2O[C@@]3(C)CC[C@H]4[C@H](C)CC[C@@H]1[C@@]24OO3 [ARTESUNATE] was tested. Which IC50 did it give?
Its IC50 is 12.4 nM.

Test system: Plasmodium falciparum
Assay: Antimalarial activity against Plasmodium falciparum D10 harboring pfATP6 L263 mutant assessed as inhibition of [3H]hypoxanthine incorporation
Assay type: functional, organism-based

How did the IC50 turn out when C[C@H]1[C@@H](O)O[C@@H]2O[C@@]3(C)CC[C@H]4[C@H](C)CC[C@@H]1[C@@]24OO3 [ARTENIMOL] was run?
Its IC50 is 3.41 nM.

For C[C@H]1[C@H](OC(=O)CCC(=O)O)O[C@@H]2O[C@@]3(C)CC[C@H]4[C@H](C)CC[C@@H]1[C@@]24OO3 [ARTESUNATE], which IC50 is on record?
The IC50 was 23.6 nM.

Test system: Plasmodium falciparum
Assay: Antimalarial activity against Plasmodium falciparum D10 clone M2 assessed as inhibition of [3H]hypoxanthine incorporation
Assay type: functional, organism-based

How did the IC50 turn out when C[C@H]1[C@@H](O)O[C@@H]2O[C@@]3(C)CC[C@H]4[C@H](C)CC[C@@H]1[C@@]24OO3 [ARTENIMOL] was run?
The IC50 was 4.52 nM.

Which IC50 does the source give for C[C@H]1[C@H](OC(=O)CCC(=O)O)O[C@@H]2O[C@@]3(C)CC[C@H]4[C@H](C)CC[C@@H]1[C@@]24OO3 [ARTESUNATE] here?
Its IC50 is 27.7 nM.

Test system: Plasmodium falciparum
Assay: Antimalarial activity against Plasmodium falciparum D10 clone M1 assessed as inhibition of [3H]hypoxanthine incorporation
Assay type: functional, organism-based

With C[C@H]1[C@@H](O)O[C@@H]2O[C@@]3(C)CC[C@H]4[C@H](C)CC[C@@H]1[C@@]24OO3 [ARTENIMOL] as the compound, how does the IC50 read?
Its IC50 is 3.79 nM.

How did the IC50 turn out when C[C@H]1[C@H](OC(=O)CCC(=O)O)O[C@@H]2O[C@@]3(C)CC[C@H]4[C@H](C)CC[C@@H]1[C@@]24OO3 [ARTESUNATE] was run?
Its IC50 is 26.5 nM.

Test system: Plasmodium falciparum
Assay: Antimalarial activity against Plasmodium falciparum D10 clone M1 harboring pfATP6 L263 mutant assessed as inhibition of [3H]hypoxanthine incorporation
Assay type: functional, organism-based

Which IC50 does the source give for C[C@H]1[C@@H](O)O[C@@H]2O[C@@]3(C)CC[C@H]4[C@H](C)CC[C@@H]1[C@@]24OO3 [ARTENIMOL] here?
The IC50 was 3.96 nM.

For C[C@H]1[C@H](OC(=O)CCC(=O)O)O[C@@H]2O[C@@]3(C)CC[C@H]4[C@H](C)CC[C@@H]1[C@@]24OO3 [ARTESUNATE], which IC50 is on record?
Its IC50 is 26.2 nM.

Test system: Plasmodium falciparum
Assay: Antimalarial activity against Plasmodium falciparum D10 clone M3 assessed as inhibition of [3H]hypoxanthine incorporation
Assay type: functional, organism-based

How did the IC50 turn out when C[C@H]1[C@@H](O)O[C@@H]2O[C@@]3(C)CC[C@H]4[C@H](C)CC[C@@H]1[C@@]24OO3 [ARTENIMOL] was run?
The IC50 was 3.56 nM.

How did the IC50 turn out when C[C@H]1[C@H](OC(=O)CCC(=O)O)O[C@@H]2O[C@@]3(C)CC[C@H]4[C@H](C)CC[C@@H]1[C@@]24OO3 [ARTESUNATE] was run?
The IC50 was 24.3 nM.

Test system: Plasmodium falciparum
Assay: Antimalarial activity against Plasmodium falciparum 7G8 clone M1 assessed as inhibition of [3H]hypoxanthine incorporation
Assay type: functional, organism-based

How did the IC50 turn out when C[C@H]1[C@@H](O)O[C@@H]2O[C@@]3(C)CC[C@H]4[C@H](C)CC[C@@H]1[C@@]24OO3 [ARTENIMOL] was run?
The IC50 was 2.58 nM.

How did the IC50 turn out when C[C@H]1[C@H](OC(=O)CCC(=O)O)O[C@@H]2O[C@@]3(C)CC[C@H]4[C@H](C)CC[C@@H]1[C@@]24OO3 [ARTESUNATE] was run?
The IC50 was 16 nM.
